# Measurements from patent US12209102B2, “Heterocyclic compounds and uses thereof” (Kumquat Biosciences Inc., priority 2022, dated 2025).
# Legend:
# K-Ras G12D = target: T1, K-Ras G12D (Homo sapiens, UniProt P01116, G12D); experiment: HTRF resonance energy transfer assay, K-Ras G12D / SOS1 interaction; assay type: biochemical; conditions: HTRF assay of Example 5; read-out: IC50 against K-Ras G12D
# T1 construct: made in house; host or cells: E. coli BL21 (DE3)
# How it was run: (§1)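 Read-out: HTRF 665/620 nm ratio (excitation 337 nm) after roughly 10 min or longer incubation, used to derive IC50. Donor anti-GST-Eu on GST-K-Ras; acceptor anti-6His-XL665 on His-hSOS1. Duplicate dose series from 10 μM down to 0.01 μM.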
# K-Ras G12S = target: T2, K-Ras G12S (Homo sapiens, UniProt P01116, G12S); experiment: HTRF resonance energy transfer assay, K-Ras G12S / SOS1 interaction; assay type: biochemical; conditions: HTRF assay of Example 5; read-out: IC50 against K-Ras G12S
# T2 construct: made in house; host or cells: E. coli BL21 (DE3)
# How it was run: as §1
# K-Ras G12V = target: T3, K-Ras G12V (Homo sapiens, UniProt P01116, G12V); experiment: HTRF resonance energy transfer assay, K-Ras G12V / SOS1 interaction; assay type: biochemical; conditions: HTRF assay of Example 5; read-out: IC50 against K-Ras G12V
# T3 construct: made in house; host or cells: E. coli BL21 (DE3)
# How it was run: as §1
# K-Ras WT = target: T4, K-Ras WT (Homo sapiens, UniProt P01116); experiment: HTRF resonance energy transfer assay, K-Ras WT / SOS1 interaction; assay type: biochemical; conditions: HTRF assay of Example 5; read-out: IC50 against K-Ras WT
# T4 construct: made in house; host or cells: E. coli BL21 (DE3)
# How it was run: as §1
# A549 cells = experiment: Ras cellular assay, growth of cells with K-Ras G12S mutation (CellTiter-Glo); assay type: cell-based; conditions: Homo sapiens, cell growth, Example 9, G12S mutation, read-out: IC50 against A549 cells
# Method: For example, this assay can be also used to assess a selective growth inhibition of a mutant Ras protein relative to a wildtype, or relative to a different mutant Ras protein.
# A549 (ATCC CCL-185) and LS123 (ATCC CCL-255) cell lines comprise a G12S mutation and can be used to assess Ras cellular signaling in vitro, e.g., in response to the compounds herein. A549 culture medium is prepared with RPMI-1640 and 10% heat-inactivated FBS. LS123 culture medium is prepared with RPMI-1640 and 10% heat-inactivated FBS. A CellTiter-Glo (CTG) luminescent based assay (Promega) is used to assess growth of the cells, as a measurement of the ability of the compounds herein to inhibit Ras signaling in the cells. The cells (e.g., 800 per well) are seeded in their respective culture medium in standard tissue culture-treated 384-well format plates (Falcon #08-772-116) or ultra-low attachment surface 384-well format plates (S-Bio #MS-9384WZ). The day after plating, cells are treated with a dilution series (e.g., a 10 point 3-fold dilution series) of the compounds herein (e.g., approximately 40 μL final volume per well). Cell viability can be monitored (e.g., approximately 6 days later) according to the manufacturer's recommended instructions, where the CellTiter-Glo reagent is added (e.g., approximately 10 μL), vigorously mixed, covered, and placed on a plate shaker (e.g., approximately for 20 min) to ensure sufficient cell lysis prior to assessment of luminescent signal. The IC50 values are determined using the four parameter fit. The resulting IC50 value is a measurement of the ability of the compounds herein to reduce cell growth of Ras-driven cells (e.g., tumor cell lines) in vitro and/or in vivo.
# SW620 cells = experiment: Ras cellular assay, growth of cells with K-Ras G12V mutation (CellTiter-Glo); assay type: cell-based; conditions: Homo sapiens, SW-620; cell growth, Example 9, G12V mutation; read-out: IC50 against SW620 cells
# How it was run: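 SW620 (K-Ras G12V) cells, e.g. 800/well in RPMI-1640 with 10% heat-inactivated FBS on standard or ultra-low attachment plates, were dosed the day after plating with e.g. a 10-point 3-fold series. Viability by CellTiter-Glo luminescence about 6 days later; IC50 from four-parameter fit.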
# T2 sequence (P01116 1-188 isoform P01116-2 G12S): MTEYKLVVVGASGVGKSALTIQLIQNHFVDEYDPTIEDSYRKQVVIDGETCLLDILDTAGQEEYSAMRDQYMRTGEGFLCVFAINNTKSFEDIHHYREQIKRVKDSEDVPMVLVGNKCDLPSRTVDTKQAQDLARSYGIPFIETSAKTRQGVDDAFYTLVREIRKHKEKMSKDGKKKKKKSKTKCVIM
# T4 sequence (P01116 1-188 isoform P01116-2): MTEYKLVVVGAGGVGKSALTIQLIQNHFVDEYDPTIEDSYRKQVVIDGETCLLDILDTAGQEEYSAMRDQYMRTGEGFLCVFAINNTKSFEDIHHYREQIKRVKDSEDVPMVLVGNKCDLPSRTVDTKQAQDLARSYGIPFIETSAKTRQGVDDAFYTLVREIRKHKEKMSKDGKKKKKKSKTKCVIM
# T3 sequence (P01116 1-188 isoform P01116-2 G12V): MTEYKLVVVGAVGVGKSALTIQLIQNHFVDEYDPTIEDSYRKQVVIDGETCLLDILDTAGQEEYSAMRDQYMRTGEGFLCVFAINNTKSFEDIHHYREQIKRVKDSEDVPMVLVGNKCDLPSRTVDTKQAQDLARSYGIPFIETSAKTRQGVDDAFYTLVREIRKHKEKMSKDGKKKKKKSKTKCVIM
# T1 sequence (P01116 1-188 isoform P01116-2 G12D): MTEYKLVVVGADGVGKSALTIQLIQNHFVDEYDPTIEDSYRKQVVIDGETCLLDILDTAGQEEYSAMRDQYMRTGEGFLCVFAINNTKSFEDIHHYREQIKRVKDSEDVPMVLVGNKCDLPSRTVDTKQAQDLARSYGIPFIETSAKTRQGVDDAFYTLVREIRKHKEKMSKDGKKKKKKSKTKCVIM
SMILES,IC50 (K-Ras G12D),IC50 (K-Ras G12S),IC50 (K-Ras G12V),IC50 (K-Ras WT),IC50 (A549 cells),IC50 (SW620 cells)
"N#Cc1c(N)sc2c(F)ccc(-c3c(Cl)c4c5c(nc(OC[C@@]67CCCN6C[C@H](F)C7)nc5c3F)N(C3CCCCC(O)C3)CCO4)c12 (stereo partly drawn) [Compound 825, 2-amino-4-(8-chloro-10-fluoro-2-(((2R,7aS)-2-fluorotetrahydro-1H-pyrrolizin-7a(5H)-yl)methoxy)-4-(3-hydroxycycloheptyl)-5,6-dihydro-4H-[1,4]oxazepino[5,6,7-de]quinazolin-9-yl)-7-fluorobenzo[b]thiophene-3-carbonitrile]",,,,,< 5000 nM,
"C[C@H]1COc2c(Cl)c(-c3ccc(F)c4sc(N)c(C#N)c34)c(F)c3nc(OC[C@@]45CCCN4C[C@H](F)C5)nc(c23)N1CC(F)F [Compound 658, 2-amino-4-((5S)-8-chloro-4-(2,2-difluoroethyl)-10-fluoro-2-(((2R,7aS)-2-fluorotetrahydro-1H-pyrrolizin-7a(5H)-yl)methoxy)-5-methyl-5,6-dihydro-4H-[1,4]oxazepino[5,6,7-de]quinazolin-9-yl)-7-fluorobenzo[b]thiophene-3-carbonitrile]",,,,,< 5000 nM,
"N#Cc1c(N)sc2c(F)ccc(-c3c(Cl)c4c5c(nc(OC[C@@]67CCCN6C[C@H](F)C7)nc5c3F)N(CC3CC3C#N)[C@@H](C(F)F)CO4)c12 (stereo partly drawn) [Compound 853, 2-amino-4-((5R)-8-chloro-4-((2-cyanocyclopropyl)methyl)-5-(difluoromethyl)-10-fluoro-2-(((2R,7aS)-2-fluorotetrahydro-1H-pyrrolizin-7a(5H)-yl)methoxy)-5,6-dihydro-4H-[1,4]oxazepino[5,6,7-de]quinazolin-9-yl)-7-fluorobenzo[b]thiophene-3-carbonitrile]",< 100 nM,< 100 nM,< 100 nM,< 100 nM,,< 5000 nM
"N#Cc1c(N)sc2c(F)ccc(-c3c(Cl)c4c5c(nc(OC[C@@]67CCCN6C[C@H](F)C7)nc5c3F)N(CC(F)F)CCO4)c12 [Compound 827, 2-amino-4-(8-chloro-4-(2,2-difluoroethyl)-10-fluoro-2-(((2R,7aS)-2-fluorotetrahydro-1H-pyrrolizin-7a(5H)-yl)methoxy)-5,6-dihydro-4H-[1,4]oxazepino[5,6,7-de]quinazolin-9-yl)-7-fluorobenzo[b]thiophene-3-carbonitrile]",,,,,< 5000 nM,
"CC(C)[C@H](N)C(=O)N1CCC(N2C[C@H](C)Oc3c(Cl)c(-c4ccc(F)c5sc(N)c(C#N)c45)c(F)c4nc(OC[C@@]56CCCN5C[C@H](F)C6)nc2c34)C1 (stereo partly drawn) [Compound 714, 4-((6S)-4-(1-(L-valyl)pyrrolidin-3-yl)-8-chloro-10-fluoro-2-(((2R,7aS)-2-fluorotetrahydro-1H-pyrrolizin-7a(5H)-yl)methoxy)-6-methyl-5,6-dihydro-4H-[1,4]oxazepino[5,6,7-de]quinazolin-9-yl)-2-amino-7-fluorobenzo[b]thiophene-3-carbonitrile]",< 100 nM,< 100 nM,< 100 nM,< 100 nM,,< 5000 nM
"CN(C)C(=O)C1CC(N2CCOc3c(Cl)c(-c4ccc(F)c5sc(N)c(C#N)c45)c(F)c4nc(OC[C@@]56CCCN5C[C@H](F)C6)nc2c34)C1 (single isomer, unassigned) [Compound 754]",< 100 nM,< 100 nM,< 100 nM,< 100 nM,,< 5000 nM
"C[C@H]1COc2c(Cl)c(-c3ccc(F)c4sc(N)c(C#N)c34)c(F)c3nc(OC[C@@]45CCCN4C[C@H](F)C5)nc(c23)N1C1CCOC1 (stereo partly drawn) [Compound 750, 2-amino-4-((5S)-8-chloro-10-fluoro-2-(((2R,7aS)-2-fluorotetrahydro-1H-pyrrolizin-7a(5H)-yl)methoxy)-5-methyl-4-(tetrahydrofuran-3-yl)-5,6-dihydro-4H-[1,4]oxazepino[5,6,7-de]quinazolin-9-yl)-7-fluorobenzo[b]thiophene-3-carbonitrile]",< 100 nM,< 100 nM,< 100 nM,< 100 nM,,< 5000 nM

# Second part, the compound after the results:
IC50 (K-Ras G12D),IC50 (K-Ras G12S),IC50 (K-Ras G12V),IC50 (K-Ras WT),IC50 (A549 cells),IC50 (SW620 cells),SMILES
< 100 nM,< 100 nM,< 100 nM,< 100 nM,< 5000 nM,,"N#Cc1c(N)sc2c(F)ccc(-c3c(Cl)c4c5c(nc(OC[C@@]67CCCN6C[C@H](F)C7)nc5c3F)N(C3CC35CCN(C=O)C5)CCO4)c12 (stereo partly drawn) [Compound 1091, 2-amino-4-(8-chloro-10-fluoro-2-(((2R,7aS)-2-fluorotetrahydro-1H-pyrrolizin-7a(5H)-yl)methoxy)-4-(5-formyl-5-azaspiro[2.4]heptan-1-yl)-5,6-dihydro-4H-[1,4]oxazepino[5,6,7-de]quinazolin-9-yl)-7-fluorobenzo[b]thiophene-3-carbonitrile]"
< 100 nM,< 100 nM,< 100 nM,< 100 nM,< 5000 nM,,"C[C@H](Oc1nc2c3c(c(Cl)c(-c4ccc(F)c5sc(N)c(C#N)c45)c(F)c3n1)OCCN2[C@@H]1CCN(C(=O)C(F)F)C1)[C@@H]1CCCN1C [Compound 946, 2-amino-4-(8-chloro-4-((R)-1-(2,2-difluoroacetyl)pyrrolidin-3-yl)-10-fluoro-2-((S)-1-((S)-1-methylpyrrolidin-2-yl)ethoxy)-5,6-dihydro-4H-[1,4]oxazepino[5,6,7-de]quinazolin-9-yl)-7-fluorobenzo[b]thiophene-3-carbonitrile]"
,< 100 nM,< 100 nM,,< 5000 nM,,"N#Cc1c(N)sc2c(F)ccc(-c3c(Cl)c4c5c(nc(OC[C@@]67CCCN6C[C@H](F)C7)nc5c3F)N(C3CCOC3)[C@@H](C(F)F)CO4)c12 (stereo partly drawn) [Compound 855, 2-amino-4-((5R)-8-chloro-5-(difluoromethyl)-10-fluoro-2-(((2R,7aS)-2-fluorotetrahydro-1H-pyrrolizin-7a(5H)-yl)methoxy)-4-(tetrahydrofuran-3-yl)-5,6-dihydro-4H-[1,4]oxazepino[5,6,7-de]quinazolin-9-yl)-7-fluorobenzo[b]thiophene-3-carbonitrile]"
< 100 nM,< 100 nM,< 100 nM,< 100 nM,< 5000 nM,,"N#Cc1c(N)sc2c(F)ccc(-c3c(Cl)c4c5c(nc(OC[C@@]67CCCN6C[C@H](F)C7)nc5c3F)N(C3C5CNC3C5)CCO4)c12 (stereo partly drawn) [Compound 991, 4-(4-(2-azabicyclo[2.1.1]hexan-5-yl)-8-chloro-10-fluoro-2-(((2R,7aS)-2-fluorotetrahydro-1H-pyrrolizin-7a(5H)-yl)methoxy)-5,6-dihydro-4H-[1,4]oxazepino[5,6,7-de]quinazolin-9-yl)-2-amino-7-fluorobenzo[b]thiophene-3-carbonitrile]"
< 100 nM,< 100 nM,< 100 nM,< 100 nM,< 5000 nM,,"N#Cc1c(N)sc2c(F)ccc(-c3c(Cl)c4c5c(nc(OC[C@@]67CCCN6C[C@H](F)C7)nc5c3F)N(C3COC5(CNC5)C3)CCO4)c12 (stereo partly drawn) [Compound 1093, 2-amino-4-(8-chloro-10-fluoro-2-(((2R,7aS)-2-fluorotetrahydro-1H-pyrrolizin-7a(5H)-yl)methoxy)-4-(5-oxa-2-azaspiro[3.4]octan-7-yl)-5,6-dihydro-4H-[1,4]oxazepino[5,6,7-de]quinazolin-9-yl)-7-fluorobenzo[b]thiophene-3-carbonitrile]"
< 100 nM,< 100 nM,< 100 nM,< 100 nM,,< 5000 nM,"CC1Oc2c(Cl)c(-c3ccc(F)c4sc(N)c(C#N)c34)c(F)c3nc(OC[C@@]45CCCN4C[C@H](F)C5)nc(c23)N(CC(F)F)[C@H]1C(C)(C)O (stereo partly drawn) [Compound 810, 2-amino-4-((5R)-8-chloro-4-(2,2-difluoroethyl)-10-fluoro-2-(((2R,7aS)-2-fluorotetrahydro-1H-pyrrolizin-7a(5H)-yl)methoxy)-5-(2-hydroxypropan-2-yl)-6-methyl-5,6-dihydro-4H-[1,4]oxazepino[5,6,7-de]quinazolin-9-yl)-7-fluorobenzo[b]thiophene-3-carbonitrile]"
